Experimental data taken from PMC7862291, “Full-length in meso structure and mechanism of rat kynurenine 3-monooxygenase inhibition” (Communications Biology, 2021).
Several values for one entry are separate records, joined by “and”; a condition that tells them apart may be missing. Equal entries are not always repeated.

Tests used:
hKMO = target: T1, hKMO (Homo sapiens, UniProt O15229); experiment: Human KMO enzyme (cell-free) assay, NADPH consumption by absorbance; type: biochemical
T1 construct: purchased Origene
T1 sequence (O15229 whole entry): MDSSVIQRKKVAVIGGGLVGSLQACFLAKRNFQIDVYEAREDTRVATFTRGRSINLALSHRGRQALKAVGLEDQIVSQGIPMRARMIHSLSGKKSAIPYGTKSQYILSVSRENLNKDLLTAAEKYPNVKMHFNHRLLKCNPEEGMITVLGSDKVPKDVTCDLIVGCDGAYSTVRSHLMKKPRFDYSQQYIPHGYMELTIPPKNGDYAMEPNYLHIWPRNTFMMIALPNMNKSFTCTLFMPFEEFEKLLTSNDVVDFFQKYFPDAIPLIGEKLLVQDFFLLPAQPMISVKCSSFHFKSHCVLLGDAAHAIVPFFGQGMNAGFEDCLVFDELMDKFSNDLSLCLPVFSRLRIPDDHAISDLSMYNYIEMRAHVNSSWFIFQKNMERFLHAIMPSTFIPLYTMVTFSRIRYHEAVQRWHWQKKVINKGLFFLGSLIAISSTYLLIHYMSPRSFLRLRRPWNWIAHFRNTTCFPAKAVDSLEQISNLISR
Experimental: (§1) Human KMO was purchased from Origene and used to assay compounds. Full-length Rat-KMO purified for crystallisation was used to assay compounds. Full-length Rat-KMO-expressing membranes were used for mutant assays (Fig. 4b) only. […] Images were taken using Odyssey CLX (LI-COR Biosciences) and quantified using ImageStudio2.0 (LI-COR Biosciences) software.
(§2) Test compounds were dissolved in DMSO and diluted with assay buffer containing 50 mM HEPES, 2 mM MgCl2, 0.5 mM EGTA, 1 mM DTT, 0.05% Tween20 and 0.005% of antiform SI (pH = about 7.9) to prepare a 4% DMSO solution. […] After 5 min of pre-incubation, reactions were started by adding 10 μL of substrate solution containing 2.4 mM kynurenine and 0.6 mM NADPH. Reactions were run for 90 min at 30 °C, then terminated by adding 5 μL of stop buffer (40 mM maleimide, 2 mM WST-9 and 0.1 mM 1-methoky PMS in water). […] Liposomal assays were performed in the same manner except that the composition of the assay buffer was changed (phosphate-buffered saline, 2 mM MgCl2, 1 mM DTT, 0.05% Tween 20).
(§3) Compound assays were analysed and plotted on graphs using Prism (GraphPad Software Inc. San Diego, CA, USA).

[1] = target: T2, HEK293 cells stably expressing rat KMO (Rattus norvegicus, UniProt O88867); experiment: Cell-based rat KMO inhibition assay (LC/MS of 3-hydroxykynurenine)
T2 construct: expressed in transfected cells
T2 sequence (O88867 whole entry): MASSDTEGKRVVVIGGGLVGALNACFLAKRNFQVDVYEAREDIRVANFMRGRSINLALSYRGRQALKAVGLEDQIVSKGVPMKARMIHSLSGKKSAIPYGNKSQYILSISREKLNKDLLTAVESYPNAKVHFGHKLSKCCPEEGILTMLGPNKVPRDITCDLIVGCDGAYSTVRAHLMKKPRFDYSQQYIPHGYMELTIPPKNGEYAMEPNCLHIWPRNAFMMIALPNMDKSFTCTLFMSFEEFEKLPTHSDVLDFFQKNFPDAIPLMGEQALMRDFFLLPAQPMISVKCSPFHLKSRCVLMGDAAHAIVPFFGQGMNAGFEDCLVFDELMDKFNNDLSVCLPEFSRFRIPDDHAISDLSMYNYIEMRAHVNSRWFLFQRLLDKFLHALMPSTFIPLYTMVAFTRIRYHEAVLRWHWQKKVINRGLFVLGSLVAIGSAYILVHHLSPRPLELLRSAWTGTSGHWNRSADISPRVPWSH
Experimental: (§4) HEK293 cells stably expressing human or rat KMO were maintained in DMEM containing 10% fetal bovine serum, 50 units/mL penicillin, 50 μg/mL streptomycin and 0.2 mg⁄mL zeocine. […] After 2 overnights, the medium was replaced with 10 μL/well of assay buffer (1 × HBSS containing 20 mM HEPES). Ten microliters per well of the diluted test compounds (final, 0–30 μM, 0.3% DMSO) were added to the respective wells. After ~30 min of pre-incubation at 37 °C, reactions were started by adding 20 μL of substrate solution containing 0.2 mM kynurenine. Reactions were run for 2 h at 37 °C, the assay buffer was discarded and the plate was immediately frozen and stored at −30 °C until LC/MS analysis.
(§5) An 80 µL volume of cold acetonitrile with 2% formic acid was added to the cell pellet in a 384-well plate and centrifuged at 3000 rpm for 10 min at 4 °C. A 40 µL volume of the supernatant was transferred to a new 384-well plate and evaporated to dryness under nitrogen gas at 45 °C. The residue was reconstituted in 100 µL of acetonitrile/water (10:90, v/v) with 0.1% formic acid, and 1 µL was injected into the LC-MS/MS system.
(§6) LC/MS/MS was performed on a Shimadzu UFLC Nexera X2 (Shimadzu Corporation, Japan) and an QTRAP® 5500 LC-MS/MS System (SCIEX, Framingham, USA). Chromatographic separation was performed using an Allure PFP Propyl analytical column (5 µm, 2.1 × 100 mm) maintained at 50 °C. The autosampler temperature was set at 15 °C. The mobile phase consisted of formic acid/water/acetonitrile/methanol (0.5/500/250/250, v/v/v/v) and the flow rate was set at 0.3 mL/min. 3-hydroxykynurenine was eluted from the LC column at a retention time of 1.2 min. The MS system was operated using electrospray ionization (ESI) in positive mode. The optimum conditions were curtain gas, 20 psi; ion spray voltage, 5500 V; heated nebulizer temperature (TEM), 700 °C; nebulizing gas (GS1), 70 psi; and heater gas (GS2), 70 psi. […] Analyst® software (SCIEX, Framingham, USA) was used for system control and MultiQuant™ Software (SCIEX, Framingham, USA) was used for data analysis.
as §3

[2] = target: T3, HEK293 cells stably expressing human KMO (Homo sapiens, UniProt O15229); experiment: Cell-based human KMO inhibition assay (LC/MS of 3-hydroxykynurenine)
T3 construct: expressed in transfected cells
T3 sequence (O15229 whole entry): as the sequence (O15229 whole entry) above
Experimental: as §4, §5, §6, §3

Rat KMO = target: T4, Rat KMO (Rattus norvegicus, UniProt O88867); experiment: Rat KMO enzyme (cell-free) assay, NADPH consumption by absorbance; type: biochemical
T4 construct: The GST-tagged full-length KMO (1-478) baculovirus vector contained a thrombin cleavage site; GST (thrombin cleavage site between GST and KMO) (N, cleaved yes); made in house; host or cells: Spodoptera frugiperda (Sf9), baculovirus
T4 sequence (O88867 whole entry): as the sequence (O88867 whole entry) above
Experimental: as §1, §2, §3

`Cc1cnn(-c2cccc(C(=O)O)c2)c1-c1ccc(Cl)c(F)c1` [Compound 2] was tested, and the IC50 (hKMO; cell-free enzyme assay, high kynurenine, read-out: Human KMO IC50) was 7.1 nM, the “inhibition rate, Hs-KMO cell-free assay (Figure 1A source data)” value (“inhibition rate, Hs-KMO cell-free assay” for short) (hKMO; conc 0.0003 μM, duplicates) was 0.420% and -1.736% and the “inhibition rate, Hs-KMO cell-free assay” value (hKMO; conc 0.001 μM, duplicates) was 9.914%. The inhibition at 0.001 µM (hKMO; conc 0.001 μM, duplicates, read-out: inhibition rate, Hs-KMO cell-free assay (Figure 1A source data)) was 12.1%, the “inhibition rate, Hs-KMO cell-free assay” value (hKMO; conc 0.003 μM, duplicates) was 25.289% and the inhibition at 0.003 µM (hKMO; conc 0.003 μM, duplicates, read-out: inhibition rate, Hs-KMO cell-free assay (Figure 1A source data)) was 27.2%. For the same molecule, the “inhibition rate, Hs-KMO cell-free assay” value (hKMO; conc 0.01 μM, duplicates) was 59.651%, the inhibition at 0.01 µM (hKMO; conc 0.01 μM, duplicates, read-out: inhibition rate, Hs-KMO cell-free assay (Figure 1A source data)) was 57.4% and the “inhibition rate, Hs-KMO cell-free assay” value (hKMO; conc 0.03 μM, duplicates) was 87.349%. The inhibition at 0.03 µM (hKMO; conc 0.03 μM, duplicates, read-out: inhibition rate, Hs-KMO cell-free assay (Figure 1A source data)) was 85.6%, the “inhibition rate, Hs-KMO cell-free assay” value (hKMO; conc 0.1 μM, duplicates) was 95.022% and the inhibition at 0.1 µM (hKMO; conc 0.1 μM, duplicates, read-out: inhibition rate, Hs-KMO cell-free assay (Figure 1A source data)) was 96.5%. For the same molecule, the “inhibition rate, Hs-KMO cell-free assay” value (hKMO; conc 0.3 μM, duplicates) was 105.860%, the inhibition at 0.3 µM (hKMO; conc 0.3 μM, duplicates, read-out: inhibition rate, Hs-KMO cell-free assay (Figure 1A source data)) was 100% and the “inhibition rate, Hs-KMO cell-free assay” value (hKMO; conc 1 μM, duplicates) was 100.287%. The inhibition at 1 µM (hKMO; conc 1 μM, duplicates, read-out: inhibition rate, Hs-KMO cell-free assay (Figure 1A source data)) was 102%, the inhibition at 0.1 µM ([1]; HEK293, conc 0.1 μM, duplicates, read-out: inhibition rate, Rat-KMO cellular assay (Figure 1D source data)) was 6.06% and the inhibition at 0.3 µM ([1]; HEK293, conc 0.3 μM, duplicates, read-out: inhibition rate, Rat-KMO cellular assay (Figure 1D source data)) was 28.6%. It also gave an inhibition at 1 µM ([1]; HEK293, conc 1 μM, duplicates, read-out: inhibition rate, Rat-KMO cellular assay (Figure 1D source data)) of 29.2%, an inhibition at 3 µM ([1]; HEK293, conc 3 μM, duplicates, read-out: inhibition rate, Rat-KMO cellular assay (Figure 1D source data)) of 55.7% and an inhibition at 10 µM ([1]; HEK293, conc 10 μM, duplicates, read-out: inhibition rate, Rat-KMO cellular assay (Figure 1D source data)) of 81.2%. The inhibition at 30 µM ([1]; HEK293, conc 30 μM, duplicates, read-out: inhibition rate, Rat-KMO cellular assay (Figure 1D source data)) was 94.7%, the IC50 ([1]; HEK293 cells expressing rat KMO, LC/MS) was 1900 nM and the “inhibition rate, Rat-KMO cellular assay (Figure 1D source data)” value (shortened to “inhibition rate, Rat-KMO cellular assay”) ([1]; conc 0.1 μM, duplicates) was 5.770%. The “inhibition rate, Rat-KMO cellular assay” value ([1]; conc 0.3 μM, duplicates) was 28.560%, the “inhibition rate, Rat-KMO cellular assay” value ([1]; conc 1 μM, duplicates) was 33.805% and the “inhibition rate, Rat-KMO cellular assay” value ([1]; conc 3 μM, duplicates) was 50.255%. The “inhibition rate, Rat-KMO cellular assay” value ([1]; conc 10 μM, duplicates) was 82.819%, the “inhibition rate, Rat-KMO cellular assay” value ([1]; conc 30 μM, duplicates) was 94.698% and the inhibition at 0.03 µM ([2]; HEK293, conc 0.03 μM, duplicates, read-out: inhibition rate, Hs-KMO cellular assay (Figure 1C source data)) was 51.3%. It also gave an inhibition at 0.1 µM ([2]; HEK293, conc 0.1 μM, duplicates, read-out: inhibition rate, Hs-KMO cellular assay (Figure 1C source data)) of 76.7%, an inhibition at 0.3 µM ([2]; HEK293, conc 0.3 μM, duplicates, read-out: inhibition rate, Hs-KMO cellular assay (Figure 1C source data)) of 92.2% and an inhibition at 1 µM ([2]; HEK293, conc 1 μM, duplicates, read-out: inhibition rate, Hs-KMO cellular assay (Figure 1C source data)) of 102%. The inhibition at 3 µM ([2]; HEK293, conc 3 μM, duplicates, read-out: inhibition rate, Hs-KMO cellular assay (Figure 1C source data)) was 104%, the inhibition at 10 µM ([2]; HEK293, conc 10 μM, duplicates, read-out: inhibition rate, Hs-KMO cellular assay (Figure 1C source data)) was 104% and the inhibition at 30 µM ([2]; HEK293, conc 30 μM, duplicates, read-out: inhibition rate, Hs-KMO cellular assay (Figure 1C source data)) was 105%. For the same molecule, the IC50 ([2]; HEK293 cells expressing human KMO, LC/MS, read-out: Human cell-based assay IC50) was 30 nM, the “inhibition rate, Hs-KMO cellular assay (Figure 1C source data)” value (from here on “inhibition rate, Hs-KMO cellular assay”) ([2]; conc 0.03 μM, duplicates) was 49.094% and the “inhibition rate, Hs-KMO cellular assay” value ([2]; conc 0.1 μM, duplicates) was 80.095%. The “inhibition rate, Hs-KMO cellular assay” value ([2]; conc 0.3 μM, duplicates) was 94.377%, the “inhibition rate, Hs-KMO cellular assay” value ([2]; conc 1 μM, duplicates) was 98.875% and the “inhibition rate, Hs-KMO cellular assay” value ([2]; conc 3 μM, duplicates) was 103.175%. For the same molecule, the “inhibition rate, Hs-KMO cellular assay” value ([2]; conc 10 μM, duplicates) was 102.973%, the “inhibition rate, Hs-KMO cellular assay” value ([2]; conc 30 μM, duplicates) was 104.572% and the IC50 (Rat KMO; cell-free enzyme assay, high kynurenine) was 150 nM. The “inhibition rate, Rat-KMO cell-free assay (Figure 1B source data)” value (shortened to “inhibition rate, Rat-KMO cell-free assay”) (Rat KMO; conc 0.03 μM, duplicates) was 20.744%, the inhibition at 0.03 µM (Rat KMO; conc 0.03 μM, duplicates, read-out: inhibition rate, Rat-KMO cell-free assay (Figure 1B source data)) was 18% and the “inhibition rate, Rat-KMO cell-free assay” value (Rat KMO; conc 0.1 μM, duplicates) was 47.122%. For the same molecule, the inhibition at 0.1 µM (Rat KMO; conc 0.1 μM, duplicates, read-out: inhibition rate, Rat-KMO cell-free assay (Figure 1B source data)) was 46%, the “inhibition rate, Rat-KMO cell-free assay” value (Rat KMO; conc 0.3 μM, duplicates) was 63.717% and the inhibition at 0.3 µM (Rat KMO; conc 0.3 μM, duplicates, read-out: inhibition rate, Rat-KMO cell-free assay (Figure 1B source data)) was 62.8%. For the same molecule, the “inhibition rate, Rat-KMO cell-free assay” value (Rat KMO; conc 1 μM, duplicates) was 81.108%, the inhibition at 1 µM (Rat KMO; conc 1 μM, duplicates, read-out: inhibition rate, Rat-KMO cell-free assay (Figure 1B source data)) was 84.3% and the “inhibition rate, Rat-KMO cell-free assay” value (Rat KMO; conc 3 μM, duplicates) was 90.360%. The inhibition at 3 µM (Rat KMO; conc 3 μM, duplicates, read-out: inhibition rate, Rat-KMO cell-free assay (Figure 1B source data)) was 87.2%, the “inhibition rate, Rat-KMO cell-free assay” value (Rat KMO; conc 10 μM, duplicates) was 90.175% and the inhibition at 10 µM (Rat KMO; conc 10 μM, duplicates, read-out: inhibition rate, Rat-KMO cell-free assay (Figure 1B source data)) was 91.4%. For the same molecule, the “inhibition rate, Rat-KMO cell-free assay” value (Rat KMO; conc 30 μM, duplicates) was 94.310%, the inhibition at 30 µM (Rat KMO; conc 30 μM, duplicates, read-out: inhibition rate, Rat-KMO cell-free assay (Figure 1B source data)) was 91.7% and the “inhibition rate, Rat-KMO cell-free assay” value (Rat KMO; conc 100 μM, duplicates) was 101.150%. For the same molecule, the inhibition at 100 µM (Rat KMO; conc 100 μM, duplicates, read-out: inhibition rate, Rat-KMO cell-free assay (Figure 1B source data)) was 89.9%.
